Literature values in patent publication US20040202714A1, “Oral pharmaceutical composition” (Daiichi Suntory Pharma Co., Ltd., priority 1999, published 2004).

Columns and labels:
genus Bacteroides = conditions: anaerobic bacteria such as the genus Bacteroides
Haemophilus influenzae = conditions: gram-negative bacteria such as Haemophilus influenzae
[1] = system: bacterial strains from dental infectious diseases; conditions: increasingly resistant strains from dental infectious diseases
[2] = system: methicillin-sensitive Staphylococcus aureus (MSSA)
[3] = system: penicillin-resistant pneumococci (PRSP)
Porphyromonas gingivalis = conditions: pathogenic bacteria of periodontis

C[C@@H](O)[C@H]1C(=O)N2C(C(=O)O)=C([C@H]3CCCO3)S[C@H]12 [Compound 1, sodium (+)-(5R, 6S)-6-[(R)-1-hydroxyethyl]-7-oxo-3-[(R)-2-tetrahydrofuryl]4-thia-1-azabicyclo [3.2.0] hept-2-ene-2-carboxylate 5/2 hydrate]
antibacterial spectrum (genus Bacteroides): wide antibacterial spectrum | antibacterial spectrum (Haemophilus influenzae): wide antibacterial spectrum | antibacterial activity (Streptococcus pneumoniae): potent antibacterial activity | antibacterial activity (Streptococcus pyrogenes): potent antibacterial activity | antibacterial activity [1]: potent antibacterial activity | antibacterial activity [2]: potent antibacterial activity | antibacterial activity (enterococci): potent antibacterial activity | antibacterial activity (oral staphylococci): potent antibacterial activity | antibacterial activity [3]: potent antibacterial activity | antibacterial activity (Porphyromonas gingivalis): potent antibacterial activity
